PubChem BioAssay (NCI)
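Dose response: 5 concentrations. Exposure: 48 h. Format: 96-well plates. Endpoint: linear interpolation; highest concentration if not reached. At the TGI there is no net growth.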

Columns and labels:
Assay in all cases: NCI-60 cell line screen, 48 h
[1] = tested on: HCC-2998 colon
[2] = tested on: TK-10 renal
[3] = tested on: UACC-257 melanoma
[4] = tested on: CCRF-CEM leukemia
[5] = tested on: HOP-62 NSCLC
[6] = tested on: SNB-19 CNS
[7] = tested on: RXF 393 renal
[8] = tested on: T-47D breast
[9] = tested on: NCI-H226 lung
[10] = tested on: M14 melanoma
[11] = tested on: SF-295 CNS
[12] = tested on: NCI-H23 lung
[13] = tested on: MDA-MB-231 breast
[14] = tested on: A549 NSCLC
[15] = tested on: COLO 205 colon
[16] = tested on: 786-0 renal
[17] = tested on: UO-31 renal
[18] = tested on: KM12 colon
[19] = tested on: UACC-62 melanoma
[20] = tested on: HOP-92 NSCLC
[21] = tested on: HS 578T breast
[22] = tested on: OVCAR-8 ovarian
[23] = tested on: SK-MEL-2 melanoma
[24] = tested on: NCI-H460 lung
[25] = tested on: SW-620 colon
[26] = tested on: HT29 colon
[27] = tested on: K-562 leukemia
[28] = tested on: BT-549 breast
[29] = tested on: LOX IMVI melanoma
[30] = tested on: SF-268 CNS
[31] = tested on: U251 CNS
[32] = tested on: OVCAR-5 ovarian
[33] = tested on: OVCAR-4 ovarian
[34] = tested on: ACHN renal
[35] = tested on: EKVX NSCLC
[36] = tested on: MOLT-4 leukemia
[37] = tested on: SK-MEL-28 melanoma
[38] = tested on: SR leukemia
[39] = tested on: OVCAR-3 ovarian
[40] = tested on: HCT-15 colon
[41] = tested on: DU-145 prostate
[42] = tested on: SNB-75 CNS
[43] = tested on: RPMI-8226 leukemia
[44] = tested on: NCI-H522 lung
[45] = tested on: SF-539 CNS
[46] = tested on: IGROV1 ovarian
[47] = tested on: HCT-116 colon
[48] = tested on: NCI/ADR-RES ovarian
[49] = tested on: CAKI-1 renal
[50] = tested on: MDA-MB-435
[51] = tested on: MALME-3M melanoma
[52] = tested on: PC-3 prostate
[53] = tested on: MCF7 breast
[54] = tested on: SN12C renal
[55] = tested on: HL-60(TB) leukemia
[56] = tested on: A498 renal
[57] = tested on: SK-OV-3 ovarian
[58] = tested on: SK-MEL-5 melanoma

CC(=O)C1=C(C)N(c2ccccc2)C2(O)C=CC(=O)C3=C(O)c4ccccc4C(=O)C312 (stereo not drawn)
TGI [1]: 25.4 µM | TGI [2]: 46.2 µM | TGI [3]: 21 µM | TGI [4]: > 100 µM | TGI [5]: 72.1 µM | TGI [6]: 38.6 µM | TGI [7]: 36.6 µM | TGI [8]: 76.8 µM | TGI [9]: 59.2 µM | TGI [10]: 58.8 µM | TGI [11]: 38.5 µM | TGI [12]: 46.3 µM | TGI [13]: 51 µM | TGI [14]: > 100 µM | TGI [15]: 36.8 µM | TGI [16]: > 100 µM | TGI [17]: 33.7 µM | TGI [18]: 40.3 µM | TGI [19]: 34.1 µM | TGI [20]: 63.9 µM | TGI [21]: > 100 µM | TGI [22]: 34.3 µM | TGI [23]: 39.2 µM | TGI [24]: > 100 µM | TGI [25]: > 100 µM | TGI [26]: > 100 µM | TGI [27]: > 100 µM | TGI [28]: 31.8 µM | TGI [29]: 83 µM | TGI [30]: 57.8 µM | TGI [31]: 40.7 µM | TGI [32]: 39.3 µM | TGI [33]: 72.1 µM | TGI [34]: 31.2 µM | TGI [35]: 49.1 µM | TGI [36]: > 100 µM | TGI [37]: 52.2 µM | TGI [38]: > 100 µM | TGI [39]: 11.4 µM | TGI [40]: > 100 µM | TGI [41]: 28.5 µM | TGI [42]: > 100 µM | TGI [43]: > 100 µM | TGI [44]: 36.4 µM | TGI [45]: 46.7 µM | TGI [46]: 34.3 µM | TGI [47]: > 100 µM | TGI [48]: 37.5 µM | TGI [49]: 33.3 µM | TGI [50]: 5.19 µM | TGI [51]: 2.64 µM | TGI [52]: 41.5 µM | TGI [53]: > 100 µM | TGI [54]: 30.3 µM | TGI [55]: 74.1 µM | TGI [56]: 39.4 µM | TGI [57]: > 100 µM | TGI [58]: 24.9 µM
